Assay results reported in ChEMBL document CHEMBL4308841, “Synthesis, in vitro antiproliferative activity, and kinase inhibitory effects of pyrazole-containing diarylureas and diarylamides” (Eur J Med Chem, 2018).

How the values were obtained:
HOP-62 [1] = test: Growth inhibition of human HOP62 cells assessed as cell growth at 0.01 uM incubated for 48 hrs by sulforhodamine B assay relative to control; assay type: functional; conditions: HOP-62, 48 h, read-out: Activity
LOX IMVI = test: Growth inhibition of human LOXIMVI cells incubated for 48 hrs by sulforhodamine B assay; assay type: functional
ACHN = test: Growth inhibition of human ACHN cells assessed as cell growth at 0.01 uM incubated for 48 hrs by sulforhodamine B assay relative to control; assay type: functional; conditions: read-out: Activity
PC-3 = test: Growth inhibition of human PC3 cells assessed as cell growth at 100 uM incubated for 48 hrs by sulforhodamine B assay relative to control; assay type: functional; conditions: PC-3, 48 h, read-out: Activity
OVCAR-3 = test: Growth inhibition of human OVCAR3 cells assessed as cell growth at 100 uM incubated for 48 hrs by sulforhodamine B assay relative to control; assay type: functional; conditions: OVCAR-3, 48 h, read-out: Activity
SK-MEL-2 [2] = test: Growth inhibition of human SK-MEL-2 cells assessed as cell growth at 0.1 uM incubated for 48 hrs by sulforhodamine B assay relative to control; assay type: functional; conditions: SK-MEL-2, 48 h, read-out: Activity
HCT-116 = test: Growth inhibition of human HCT116 cells assessed as cell growth at 0.01 uM incubated for 48 hrs by sulforhodamine B assay relative to control; assay type: functional; conditions: HCT-116, 48 h, read-out: Activity
SK-MEL-28 = test: Growth inhibition of human SK-MEL-28 cells assessed as cell growth at 1 uM incubated for 48 hrs by sulforhodamine B assay relative to control; assay type: functional; conditions: SK-MEL-28, 48 h, read-out: Activity
A498 = test: Growth inhibition of human A498 cells incubated for 48 hrs by sulforhodamine B assay; assay type: functional, cell-based; conditions: A498, 48 h
BT-549 = test: Growth inhibition of human BT549 cells assessed as cell growth at 0.1 uM incubated for 48 hrs by sulforhodamine B assay relative to control; assay type: functional; conditions: BT-549, 48 h, read-out: Activity
DU-145 = test: Growth inhibition of human DU145 cells incubated for 48 hrs by sulforhodamine B assay; assay type: functional, cell-based; conditions: DU-145, 48 h
IGROV-1 = test: Growth inhibition of human IGROV1 cells incubated for 48 hrs by sulforhodamine B assay; assay type: functional, cell-based; conditions: IGROV-1, 48 h
SK-OV-3 = test: Growth inhibition of human SKOV3 cells assessed as cell growth at 0.1 uM incubated for 48 hrs by sulforhodamine B assay relative to control; assay type: functional; conditions: SK-OV-3, 48 h, read-out: Activity
KM12 = test: Growth inhibition of human KM12 cells assessed as cell growth at 1 uM incubated for 48 hrs by sulforhodamine B assay relative to control; assay type: functional; conditions: KM12, 48 h, read-out: Activity
UACC-257 = test: Growth inhibition of human UACC257 cells assessed as cell growth at 100 uM incubated for 48 hrs by sulforhodamine B assay relative to control; assay type: functional; conditions: UACC-257, 48 h, read-out: Activity
RPMI-8226 = test: Growth inhibition of human RPMI8226 cells assessed as cell growth at 100 uM incubated for 48 hrs by sulforhodamine B assay relative to control; assay type: functional; conditions: RPMI-8226, 48 h, read-out: Activity
SN12C = test: Growth inhibition of human SN12C cells assessed as cell growth at 0.1 uM incubated for 48 hrs by sulforhodamine B assay relative to control; assay type: functional; conditions: read-out: Activity
SNB-19 = test: Growth inhibition of human SNB19 cells assessed as cell growth at 0.1 uM incubated for 48 hrs by sulforhodamine B assay relative to control; assay type: functional; conditions: SNB-19, 48 h, read-out: Activity
HCT-15 = test: Growth inhibition of human HCT15 cells assessed as cell growth at 100 uM incubated for 48 hrs by sulforhodamine B assay relative to control; assay type: functional; conditions: HCT-15, 48 h, read-out: Activity
TK-10 = test: Growth inhibition of human TK10 cells assessed as cell growth at 10 uM incubated for 48 hrs by sulforhodamine B assay relative to control; assay type: functional; conditions: TK-10, 48 h, read-out: Activity
HOP-62 [3] = test: Growth inhibition of human HOP62 cells assessed as cell growth at 100 uM incubated for 48 hrs by sulforhodamine B assay relative to control; assay type: functional; conditions: HOP-62, 48 h, read-out: Activity
K562 = test: Growth inhibition of human K562 cells assessed as cell growth at 1 uM incubated for 48 hrs by sulforhodamine B assay relative to control; assay type: functional; conditions: K562, 48 h, read-out: Activity
MOLT-4 = test: Growth inhibition of human MOLT4 cells assessed as cell growth at 0.01 uM incubated for 48 hrs by sulforhodamine B assay relative to control; assay type: functional; conditions: MOLT-4, 48 h, read-out: Activity
NCI/ADR-RES = test: Growth inhibition of human NCI/ADR-RES cells incubated for 48 hrs by sulforhodamine B assay; assay type: functional, cell-based
UACC-62 = test: Growth inhibition of human UACC62 cells assessed as cell growth at 1 uM incubated for 48 hrs by sulforhodamine B assay relative to control; assay type: functional; conditions: UACC-62, 48 h, read-out: Activity
SK-MEL-2 [4] = test: Growth inhibition of human SK-MEL-2 cells assessed as cell growth at 100 uM incubated for 48 hrs by sulforhodamine B assay relative to control; assay type: functional; conditions: SK-MEL-2, 48 h, read-out: Activity
HL-60(TB) = test: Growth inhibition of human HL-60(TB) cells assessed as cell growth at 0.1 uM incubated for 48 hrs by sulforhodamine B assay relative to control; assay type: functional; conditions: HL-60, 48 h, read-out: Activity
SNB-75 = test: Growth inhibition of human SNB75 cells assessed as cell growth at 0.1 uM incubated for 48 hrs by sulforhodamine B assay relative to control; assay type: functional; conditions: SNB-75, 48 h, read-out: Activity
OVCAR-8 = test: Growth inhibition of human OVCAR8 cells assessed as cell growth at 100 uM incubated for 48 hrs by sulforhodamine B assay relative to control; assay type: functional; conditions: OVCAR-8, 48 h, read-out: Activity
NCI-H226 = test: Growth inhibition of human NCI-H226 cells assessed as cell growth at 100 uM incubated for 48 hrs by sulforhodamine B assay relative to control; assay type: functional; conditions: NCI-H226, 48 h, read-out: Activity
[5] = read-out: LC50 (the source's name)
[6] = read-out: pLC50 (the source's name) (converted)

`COc1cc(Cl)cc(-c2nn(-c3cccc(NC(=O)c4ccc(N5CCOCC5)c(C(F)(F)F)c4)c3)cc2-c2ccncc2)c1` gave a growth at 0.01 µM (HOP-62 [1]) of 104%, a GI50 (LOX IMVI; read-out: GI50) of 1.58 µM and a CC50 (LOX IMVI; [5]) greater than 100 µM. The TGI (LOX IMVI; read-out: TGI) was greater than 100 µM, the GI50 (LOX IMVI; read-out: pGI50 (converted)) was 15.8 µM and the CC50 (LOX IMVI; [6]) was greater than 100 µM. For the same compound, the TGI (LOX IMVI; read-out: pTGI (converted)) was greater than 100 µM, the growth at 0.01 µM (ACHN) was 100% and the growth at 100 µM (PC-3) was 19%. For the same compound, the growth at 100 µM (OVCAR-3) was 44%, the growth at 0.1 µM (SK-MEL-2 [2]) was 83% and the growth at 0.01 µM (HCT-116) was 97%. For the same compound, the growth at 1 µM (SK-MEL-28) was 53%, the GI50 (A498; read-out: GI50) was 1.52 µM and the CC50 (A498; [5]) was greater than 100 µM. It also gave a TGI (A498; read-out: TGI) greater than 100 µM, a GI50 (A498; read-out: pGI50 (converted)) of 16.2 µM and a CC50 (A498; [6]) greater than 100 µM. For the same compound, the TGI (A498; read-out: pTGI (converted)) was greater than 100 µM, the growth at 0.1 µM (BT-549) was 100% and the GI50 (DU-145; read-out: GI50) was greater than 100 µM. It also gave a CC50 (DU-145; [5]) greater than 100 µM, a TGI (DU-145; read-out: TGI) greater than 100 µM and a GI50 (DU-145; read-out: pGI50 (converted)) greater than 100 µM. The CC50 (DU-145; [6]) was greater than 100 µM, the TGI (DU-145; read-out: pTGI (converted)) was greater than 100 µM and the GI50 (IGROV-1; read-out: GI50) was greater than 100 µM. For the same compound, the CC50 (IGROV-1; [5]) was greater than 100 µM, the TGI (IGROV-1; read-out: TGI) was greater than 100 µM and the GI50 (IGROV-1; read-out: pGI50 (converted)) was greater than 100 µM. For the same compound, the CC50 (IGROV-1; [6]) was greater than 100 µM, the TGI (IGROV-1; read-out: pTGI (converted)) was greater than 100 µM and the growth at 0.1 µM (SK-OV-3) was 102%. For the same compound, the growth at 1 µM (KM12) was 52%, the growth at 100 µM (UACC-257) was -18% and the growth at 100 µM (RPMI-8226) was 10%. It also gave a growth at 0.1 µM (SN12C) of 95%, a growth at 0.1 µM (SNB-19) of 94% and a growth at 100 µM (HCT-15) of 5%. It also gave a growth at 10 µM (TK-10) of 90.6%, a growth at 100 µM (HOP-62 [3]) of 45% and a growth at 1 µM (K562) of 91%. It also gave a growth at 0.01 µM (MOLT-4) of 100%, a GI50 (NCI/ADR-RES; read-out: GI50) of 5.17 µM and a CC50 (NCI/ADR-RES; [5]) greater than 100 µM. The TGI (NCI/ADR-RES; read-out: TGI) was greater than 100 µM, the GI50 (NCI/ADR-RES; read-out: pGI50 (converted)) was 6.17 µM and the CC50 (NCI/ADR-RES; [6]) was greater than 100 µM. The TGI (NCI/ADR-RES; read-out: pTGI (converted)) was greater than 100 µM, the growth at 1 µM (UACC-62) was 84% and the growth at 100 µM (SK-MEL-2 [4]) was 15%. The growth at 0.1 µM (HL-60(TB)) was 91%, the growth at 0.1 µM (SNB-75) was 54% and the growth at 100 µM (OVCAR-8) was 32%. It also gave a growth at 100 µM (NCI-H226) of 50%.
Compound `COc1cc(Cl)cc(-c2nn(-c3cccc(NC(=O)c4cccc(C(F)(F)F)c4)c3)cc2-c2ccncc2)c1` has a growth at 0.01 µM (HOP-62 [1]) of 104%, a GI50 (LOX IMVI; read-out: GI50) of 1.57 µM and a CC50 (LOX IMVI; [5]) greater than 100 µM. It also gave a TGI (LOX IMVI; read-out: TGI) greater than 100 µM, a GI50 (LOX IMVI; read-out: pGI50 (converted)) of 15.8 µM and a CC50 (LOX IMVI; [6]) greater than 100 µM. It also gave a TGI (LOX IMVI; read-out: pTGI (converted)) greater than 100 µM, a growth at 0.01 µM (ACHN) of 98% and a growth at 100 µM (PC-3) of 17%. It also gave a growth at 100 µM (OVCAR-3) of 38%, a growth at 0.1 µM (SK-MEL-2 [2]) of 95% and a growth at 0.01 µM (HCT-116) of 100%. It also gave a growth at 1 µM (SK-MEL-28) of 92%, a CC50 (A498; [5]) greater than 100 µM and a TGI (A498; read-out: TGI) greater than 100 µM. It also gave a CC50 (A498; [6]) greater than 100 µM, a TGI (A498; read-out: pTGI (converted)) greater than 100 µM and a growth at 0.1 µM (BT-549) of 94%. The GI50 (DU-145; read-out: GI50) was greater than 100 µM, the CC50 (DU-145; [5]) was greater than 100 µM and the TGI (DU-145; read-out: TGI) was greater than 100 µM. It also gave a GI50 (DU-145; read-out: pGI50 (converted)) greater than 100 µM, a CC50 (DU-145; [6]) greater than 100 µM and a TGI (DU-145; read-out: pTGI (converted)) greater than 100 µM. The GI50 (IGROV-1; read-out: GI50) was greater than 100 µM, the CC50 (IGROV-1; [5]) was greater than 100 µM and the TGI (IGROV-1; read-out: TGI) was greater than 100 µM. The GI50 (IGROV-1; read-out: pGI50 (converted)) was greater than 100 µM, the CC50 (IGROV-1; [6]) was greater than 100 µM and the TGI (IGROV-1; read-out: pTGI (converted)) was greater than 100 µM. For the same compound, the growth at 0.1 µM (SK-OV-3) was 105%, the growth at 1 µM (KM12) was 56% and the growth at 100 µM (UACC-257) was 52%. The growth at 100 µM (RPMI-8226) was 22%, the growth at 0.1 µM (SN12C) was 99% and the growth at 0.1 µM (SNB-19) was 97%. It also gave a growth at 100 µM (HCT-15) of 28%, a growth at 10 µM (TK-10) of 72.7% and a growth at 100 µM (HOP-62 [3]) of 83%. For the same compound, the growth at 1 µM (K562) was 90%, the growth at 0.01 µM (MOLT-4) was 91% and the GI50 (NCI/ADR-RES; read-out: GI50) was 5.38 µM. The CC50 (NCI/ADR-RES; [5]) was greater than 100 µM, the TGI (NCI/ADR-RES; read-out: TGI) was greater than 100 µM and the GI50 (NCI/ADR-RES; read-out: pGI50 (converted)) was 5.37 µM. For the same compound, the CC50 (NCI/ADR-RES; [6]) was greater than 100 µM, the TGI (NCI/ADR-RES; read-out: pTGI (converted)) was greater than 100 µM and the growth at 1 µM (UACC-62) was 56%. The growth at 100 µM (SK-MEL-2 [4]) was 47%, the growth at 0.1 µM (HL-60(TB)) was 90% and the growth at 0.1 µM (SNB-75) was 54%. The growth at 100 µM (OVCAR-8) was 41% and the growth at 100 µM (NCI-H226) was 50%.
